According to US8309580B2, “Heterocyclic compound” (Takeda Pharmaceutical Company Limited, priority 2007, dated 2012):

system: glucagon-induced blood glucose increase; assay: Test of glucagon-induced blood glucose increase-suppressive action in mouse; assay type: in vivo; conditions: male ICR mouse, fasted; test compound 10 mg/kg orally 60 min before s.c. glucagon 10 μg/kg with octreotide; blood glucose 30 min after glucagon
Protocol: Test of Glucagon-Induced Blood Glucose Increase-Suppressive Action in Mouse
Full feeding ICR mouse (male, 7-week-old) was fasted, and 0.5% methylcellulose suspension (compound-administration group, 8 mice per group) containing a test compound (10 mg/kg body weight) or 0.5% methylcellulose suspension (compound-non-administration group, 8 mice per group) was orally administered. After 60 minutes, glucagon (10 μg/kg body weight, Novo Nordisk Pharma Ltd.) containing octreotide (100 μg/kg body weight, Novo Nordisk Pharma Ltd.) was subcutaneously administered. After 30 minutes from the glucagon administration, blood samples were collected from the tail vein of the mouse, and the blood glucose level was measured by a glucose self-test kit ACCU-CHEK (Roche Diagnostics K.K.). As a non-treatment group (8 mice per group), the blood glucose level of mouse of the compound-non-administration group, which was free of glucagon administration, was measured in the same manner as in the above.
The differences between the average blood glucose level of the compound-non-administration group, the average blood glucose level of the compound administration group, and the average blood glucose level of the non-treatment group were each calculated, and the percentage of the “difference between the blood glucose level of the compound administration group and that of the non-treatment group” relative to the “difference between the blood glucose level of the compound-non-administration group and that of the non-treatment group” as 100% was determined as an “increasing rate of blood glucose (% of control)”.

With `CCc1oc(-c2ccc(C(F)(F)F)cc2)cc1C(Nc1ccc(C(=O)N(C)CCC(=O)O)cc1)C1CCCCC1` (centres unmarked) [Ex. 87, 3-[({4-[(cyclohexyl{2-ethyl-5-[4-(trifluoromethyl)phenyl]furan-3-yl}methyl)amino]phenyl}carbonyl)(methyl)amino]propanoic acid] the “increasing rate of blood glucose (% of control)” value (shortened to “increasing rate … (% of control)”) was 6.5 % of control.
For `COCc1oc(-c2ccc(OC)nc2)cc1C(Nc1ccc(C(=O)N(C)CCC(=O)O)cc1)C1CCCCC1` (centres unmarked) [Example 147, 3-[{[4-({cyclohexyl[2-(methoxymethyl)-5-(6-methoxypyridin-3-yl)furan-3-yl]methyl}amino)phenyl]carbonyl}(methyl)amino]propanoic acid], the “increasing rate … (% of control)” value was 8.6 % of control.
With `COc1ccc(-c2cc(C(CC(C)C)Nc3ccc(C(=O)N(C)CCC(=O)O)cc3)c(C)o2)cn1` (centres unmarked) [Example 149, 3-[{[4-({1-[5-(6-methoxypyridin-3-yl)-2-methylfuran-3-yl]-3-methylbutyl}amino)phenyl]carbonyl}(methyl)amino]propanoic acid] the “increasing rate … (% of control)” value was 6.8 % of control.

target: human-type glucagon receptor (Homo sapiens, UniProt P47871); assay: Glucagon binding inhibitory activity ([125I]-glucagon binding to glucagon receptor membrane protein); conditions: glucagon receptor membrane protein from FreeStyle CHO cells, 90 min at room temperature
Sequence (P47871 26-477): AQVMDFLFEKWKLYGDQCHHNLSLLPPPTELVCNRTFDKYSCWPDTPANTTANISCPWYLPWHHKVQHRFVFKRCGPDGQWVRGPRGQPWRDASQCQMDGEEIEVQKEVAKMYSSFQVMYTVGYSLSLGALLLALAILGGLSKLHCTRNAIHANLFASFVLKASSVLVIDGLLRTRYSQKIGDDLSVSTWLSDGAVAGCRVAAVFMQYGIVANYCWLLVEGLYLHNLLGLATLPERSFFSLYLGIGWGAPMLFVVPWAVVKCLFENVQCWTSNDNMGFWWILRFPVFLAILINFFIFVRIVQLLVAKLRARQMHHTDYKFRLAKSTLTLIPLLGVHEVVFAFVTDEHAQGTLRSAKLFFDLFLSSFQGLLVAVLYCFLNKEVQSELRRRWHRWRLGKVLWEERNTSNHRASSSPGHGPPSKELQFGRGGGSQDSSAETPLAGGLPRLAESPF
Protocol: The glucagon binding inhibitory action of the compound of the present invention was evaluated by the following method.
(1) Preparation of Glucagon Receptor Membrane Protein
A human-type glucagon receptor was expressed using FreeStyle CHO Expression System (Invitrogen). A transient expression in FreeStyle CHO cell was performed using a human-type glucagon expression plasmid DNA and according to the manual attached to the FreeStyle CHO Expression System. The above-mentioned DNA was transfected and the cultured with shaking for 2 days (37° C., 8% CO2, 125 rpm). 2400 ml of culture medium was centrifuged at 2,000 rpm for 10 min and the cells were collected. The collected cells were washed with PBS, suspended in homogenate buffer [10 mM NaHCO3 (pH 7.4), 1 mM EDTA, Complete EDTA-free (Roche, 1 tablet/50 mL)] and disrupted by polytron cell disrupter (Kinematica AG). Disruption solution was centrifuged at 2,000 rpm for 10 min and the supernatant was collected. The supernatant was centrifuged at 35,000 rpm for 60 min and the precipitate was suspended in a buffer [20 mM Tris-HCl (pH 7.4), 5 mM EDTA, Complete EDTA-free (Roche, 1 tablet/50 mL)] to give a glucagon receptor membrane protein (452 mg).
(2) Measurement of Glucagon Binding Inhibitory Activity
To each well of 96 well plate (Corning Incorporated) were added 25 μl of test compound (containing 0.4% DMSO), 50 μl of glucagon receptor membrane protein diluted with reaction buffer [50 mM Tris-HCl (pH 7.4), 5 mM EGTA, 5 mM magnesium chloride, 0.1% BSA, 0.005% Tween20] to 100 μg/ml, and 25 μl of radioactive labeled glucagon ([^125I]-Receptor Grade Glucagon; Perkin Elmer Inc.) diluted with the reaction buffer to 200 pM, whereby the reaction was started. The plate was stood for 90 min at room temperature. The reaction solution was transferred from the reaction plate to a 96 well unifilter GF/C plate (Perkin Elmer Inc.) using a cell harvester (Perkin Elmer Inc.) and the membrane fraction was collected on the filter by suction. The filter was presoaked in 2 mg/ml of polyethyleneimine to prevent non-specific adsorption of labeled ligand. The filter was washed 4 times with a reaction buffer and dried for 2 hr at 42° C. To each well was added 25 μl of scintillator (MicroScint0; Perkin Elmer Inc.), and the fluorescence amount was measured using a microplate scintillation counter (TopCount NXT™; Perkin Elmer Inc.). The glucagon binding inhibitory activity (IC50 value) of the well added with the test compound (containing 0.4% DMSO) was calculated, using the reaction rate of the well added only with 0.4% DMSO as 0% inhibitory rate, and the reaction rate of the well added with non-labeled glucagon (final concentration 1 μM) as 100% inhibitory rate.

Point of comparison: `Cc1sc(-c2ccccc2)cc1C(Nc1ccc(C(=O)N(C)CCC(=O)O)nc1)C1CCCCC1` (centres unmarked) [Ex. 311, 3-{[(5-{[cyclohexyl(2-methyl-5-phenylthiophen-3-yl)methyl]amino}pyridin-2-yl)carbonyl](methyl)amino}propanoic acid], IC50 650 nM. Against it:
- COc1ccc(-c2cc(C(Nc3ccc(C(=O)N(C)CCC(=O)O)cc3)C3CCCCC3)c(C)o2)cn1 (single isomer, unassigned) [Ex. 166, 3-[{[4-({cyclohexyl[5-(6-methoxypyridin-3-yl)-2-methylfuran-3-yl]methyl}amino)phenyl]carbonyl}(methyl)amino]propanoic acid] — 3.6-fold lower, 180 nM
- COc1ccc(-c2cc(C(CC(C)C)Nc3ccc(C(=O)N(C)CCC(=O)O)cc3)c(C)o2)cn1 (single isomer, unassigned) [Ex. 319, 3-[{[4-({1-[5-(6-methoxypyridin-3-yl)-2-methylfuran-3-yl]-3-methylbutyl}amino)phenyl]carbonyl}(methyl)amino]propanoic acid] — 2.8-fold lower, 230 nM
- CCc1oc(-c2ccc(C(F)(F)F)cc2)cc1C(CC(C)C)Oc1ccc(C(=O)NCCC(=O)O)cc1 (centres unmarked) [Ex. 5, 3-{[4-(1-{2-ethyl-5-[4-(trifluoromethyl)phenyl]-3-furyl}-3-methylbutoxy)benzoyl]amino}propanoic acid] — within 1.5-fold, 630 nM
- CCc1oc(-c2ccc(C(F)(F)F)cc2)cc1C(Nc1ccc(C(=O)N(C)CCC(=O)O)cc1)C1CCCCC1 (centres unmarked) [Ex. 10, 3-[{4-[(cyclohexyl{2-ethyl-5-[4-(trifluoromethyl)phenyl]-3-furyl}methyl)amino]benzoyl}(methyl)amino]propanoic acid] — 2.6-fold lower, 250 nM
- Cc1oc(-c2ccc(OC(F)(F)F)cc2)cc1C(Nc1ccc(C(=O)NCCC(=O)O)cc1)C1CCCCC1 (centres unmarked) [Ex. 53, 3-({4-[(cyclohexyl{2-methyl-5-[4-(trifluoromethoxy)phenyl]-3-furyl}methyl)amino]benzoyl}amino)propanoic acid] — 5.9-fold lower, 110 nM
- CCc1sc(-c2ccc(C(F)(F)F)cc2)cc1C(Nc1ccc(C(=O)NCCC(=O)O)cc1)C1CCCCC1 (centres unmarked) [Ex. 71, 3-[({4-[(cyclohexyl{2-ethyl-5-[4-(trifluoromethyl)phenyl]thiophen-3-yl}methyl)amino]phenyl}carbonyl)amino]propanoic acid] — 11-fold lower, 57 nM
- CCc1sc(C2CCCCC2)cc1C(Nc1ccc(C(=O)NCCC(=O)O)cc1)C1CCCCC1 (centres unmarked) [Ex. 79, 3-{[(4-{[cyclohexyl(5-cyclohexyl-2-ethylthiophen-3-yl)methyl]amino}phenyl)carbonyl]amino}propanoic acid] — 6.7-fold lower, 97 nM
- CCc1sc(CC(C)C)cc1C(Nc1ccc(C(=O)NCCC(=O)O)cc1)C1CCCCC1 (centres unmarked) [Ex. 83, 3-({[4-({cyclohexyl[2-ethyl-5-(2-methylpropyl)thiophen-3-yl]methyl}amino)phenyl]carbonyl}amino)propanoic acid] — 3.4-fold lower, 190 nM
- COCc1oc(-c2ccc(F)cc2)cc1C(Nc1ccc(C(=O)N(C)CCC(=O)O)cc1)C1CCCCC1 (centres unmarked) [Ex. 314, 3-[{[4-({cyclohexyl[5-(4-fluorophenyl)-2-(methoxymethyl)furan-3-yl]methyl}amino)phenyl]carbonyl}(methyl)amino]propanoic acid] — 2.2-fold lower, 290 nM
- Cc1oc(-c2ccc(F)cc2)cc1C(Nc1ccc(C(=O)N(C)CCC(=O)O)nc1)C1CCCCC1 (centres unmarked) [Ex. 318, 3-[{[5-({cyclohexyl[5-(4-fluorophenyl)-2-methylfuran-3-yl]methyl}amino)pyridin-2-yl]carbonyl}(methyl)amino]propanoic acid] — 1.6-fold lower, 400 nM
